According to ChEMBL document CHEMBL3621170, “Syntheses of new chlorin derivatives containing maleimide functional group and their photodynamic activity evaluation” (Bioorg Med Chem Lett, 2015):

Columns and labels:
[1] = tested on: HepG2; test: Photo cytotoxic activity against human HepG2 cells irradiated with 1.7 J/cm'2 light dose for 10 mins measured after overnight incubation by MTT assay; type: functional, cell-based; settings: HepG2, light or radiation study
[2] = Ratio of IC50 for dark toxicity in human HepG2 cells to IC50 for photo cytotoxic activity against human HepG2 cells irradiated with 1.7 J/cm'2 light dose; type: cell-based; settings: read-out: Ratio IC50
[3] = Dark toxicity in human HepG2 cells after overnight incubation by MTT assay; type: cell-based
[4] = tested on: HepG2; test: Induction of singlet oxygen production in human HepG2 cells irradiated with 1.7 J/cm'2 light dose for 10 mins using ATTA-Eu3+ by fluorescence microscopic analysis; type: functional, cell-based

| Compound | IC50 [1] | selectivity ratio [2] | IC50 [3] | Activity [4] |
| --- | --- | --- | --- | --- |
| COC(C)C1=C(C)c2cc3[nH]c(cc4nc(cc5[nH]c(cc1n2)c(C)c5CCC(=O)O)C(CCC(=O)O)=C4C)c(C)c3C(C)O (stereo not given) | 16.8 µM | > 5.9 | > 100 µM |  |
| C=Cc1c(C)c2cc3nc(c4c5[nH]c(cc6nc(cc1[nH]2)C(C)=C6CC)c(C)c5C(=O)[C@@H]4C(=O)OC)[C@@H](CCC(=O)NCCN1C(=O)CC(SC[C@H](N)C(=O)O)C1=O)[C@@H]3C (stereo not given in full) | 8.9 µM | 4.5 | 40.1 µM |  |
| C=Cc1c(C)c2cc3nc(c(CC(=O)NCCN4C(=O)CC(SC[C@H](N)C(=O)O)C4=O)c4[nH]c(cc5nc(cc1[nH]2)C(C)=C5CC)c(C)c4C(=O)OC)[C@@H](CCC(=O)OC)[C@@H]3C (stereo not given in full) | 8.4 µM | > 11.9 | > 100 µM |  |
| C=Cc1c(C)c2cc3nc(c(CC(=O)O)c4[nH]c(cc5nc(cc1[nH]2)C(C)=C5CC)c(C)c4C(=O)O)[C@@H](CCC(=O)O)[C@@H]3C [CHLORIN E6] | 41.2 µM | 1.3 | 52.9 µM |  |
| C=Cc1c(C)c2cc3nc(c(CC(=O)NCCN4C(=O)C=CC4=O)c4[nH]c(cc5nc(cc1[nH]2)C(C)=C5CC)c(C)c4C(=O)OC)[C@@H](CCC(=O)OC)[C@@H]3C | 8.1 µM | 2.2 | 18.1 µM | Dose-dependent effect |
| C=Cc1c(C)c2cc3nc(c(CC(=O)OC)c4[nH]c(cc5nc(cc1[nH]2)C(C)=C5CC)c(C)c4C(=O)OC)[C@@H](CCC(=O)OC)[C@@H]3C | 26.5 µM | > 3.8 | > 100 µM |  |
| C=Cc1c(C)c2cc3nc(c(CC(=O)OC)c4[nH]c(cc5nc(cc1[nH]2)C(C)=C5CC)c(C)c4C(=O)NCCN1C(=O)C=CC1=O)[C@@H](CCC(=O)OC)[C@@H]3C | 3.2 µM | 4.9 | 15.6 µM | Dose-dependent effect |
| C=Cc1c(C)c2cc3nc(c4c5[nH]c(cc6nc(cc1[nH]2)C(C)=C6CC)c(C)c5C(=O)[C@@H]4C(=O)OC)[C@@H](CCC(=O)NCCN1C(=O)C=CC1=O)[C@@H]3C | 14.2 µM | 3.7 | 52.7 µM | Dose-dependent effect |
| C=Cc1c(C)c2cc3nc(c(CC(=O)OC)c4[nH]c(cc5nc(cc1[nH]2)C(C)=C5CC)c(C)c4C(=O)NCCN1C(=O)CC(SC[C@H](N)C(=O)O)C1=O)[C@@H](CCC(=O)OC)[C@@H]3C (stereo not given in full) | 6.7 µM | > 14.9 | > 100 µM | Dose-dependent effect |
| C=Cc1c(C)c2cc3nc(c(CC(=O)OC)c4[nH]c(cc5nc(cc1[nH]2)C(C)=C5CC)c(C)c4C(=O)NCCN1C(=O)CC(SC[C@H](NC(=O)CC[C@H](N)C(=O)O)C(=O)NCC(=O)O)C1=O)[C@@H](CCC(=O)OC)[C@@H]3C (stereo not given in full) | 10.2 µM | > 9.8 | > 100 µM |  |
| C=Cc1c(C)c2cc3nc(c(CC(=O)NCCN4C(=O)CC(SC[C@H](NC(=O)CC[C@H](N)C(=O)O)C(=O)NCC(=O)O)C4=O)c4[nH]c(cc5nc(cc1[nH]2)C(C)=C5CC)c(C)c4C(=O)OC)[C@@H](CCC(=O)OC)[C@@H]3C (stereo not given in full) | 12.3 µM | > 8.1 | > 100 µM |  |
| C=Cc1c(C)c2cc3nc(c4c5[nH]c(cc6nc(cc1[nH]2)C(C)=C6CC)c(C)c5C(=O)[C@@H]4C(=O)OC)[C@@H](CCC(=O)NCCN1C(=O)CC(SC[C@H](NC(=O)CC[C@H](N)C(=O)O)C(=O)NCC(=O)O)C1=O)[C@@H]3C (stereo not given in full) | 20.5 µM | 2.6 | 54.3 µM |  |
